Consider 9 molecules from patent US7425418B2, “Compounds that modulate processes associated with IgE production” (Rigel Pharmaceuticals, Inc., priority 2002, dated 2008).

In one assay the test system is germline ε transcription. To be noted: in vitro assays, literature; cited from earlier work.
For another assay, the system named is IgE production. Particulars: in vitro assays, literature; cited from earlier work.
In assay [1] the test system is germline ε promoter (A5T4 reporter line). In words: Retinoids contacted with IL-4 stimulated A5T4 reporter cells, inhibition of germline ε transcription. Particulars: 0.03 μM, 0.3 μM, 3 μM and 30 μM, FIG. 12. The format is cell-based, human. On the procedure:
IL-4 stimulated A5T4 reporter cells were contacted with varying concentrations of retinoids a-tRA, 13-cRA and 9-cRA (0.03 μM, 0.3 μM, 3 μM and 30 μM) as assessed for inhibition of germline ε transcription. DMSO and a compound known to inhibit germline ε transcription were tested as controls.

The next assay concerns the target T1, human RXR-β (hRXR-β) (Homo sapiens, UniProt P28702).
T1 construct: expressed in transfected cells; prey cDNA from a library of the A5T4 reporter cell line (BJAB B-cells)
T1 sequence (P28702 1-533): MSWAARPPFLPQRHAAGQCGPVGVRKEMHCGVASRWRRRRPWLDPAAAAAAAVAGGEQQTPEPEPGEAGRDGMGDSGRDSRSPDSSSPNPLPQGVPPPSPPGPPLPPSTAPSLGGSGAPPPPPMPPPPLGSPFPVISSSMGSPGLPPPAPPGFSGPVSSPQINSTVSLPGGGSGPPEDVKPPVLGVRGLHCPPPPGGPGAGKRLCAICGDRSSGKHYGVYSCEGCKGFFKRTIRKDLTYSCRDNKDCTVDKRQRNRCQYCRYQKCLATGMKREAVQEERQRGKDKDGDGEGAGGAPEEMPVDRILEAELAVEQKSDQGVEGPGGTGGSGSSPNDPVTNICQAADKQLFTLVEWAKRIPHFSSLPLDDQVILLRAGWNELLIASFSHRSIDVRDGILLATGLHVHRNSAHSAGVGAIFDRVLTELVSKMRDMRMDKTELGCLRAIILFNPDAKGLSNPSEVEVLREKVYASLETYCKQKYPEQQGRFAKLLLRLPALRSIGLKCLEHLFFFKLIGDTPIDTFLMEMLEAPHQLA
As to the kind of experiment: β-galactosidase yeast two-hybrid (YTH) interaction assay. It is filed as binding. On the procedure:
Potential binding partners for peptide CL06wt were identified in a β-galactosidase yeast two-hybrid (YTH) assay using peptide CL06wt as bait and a cDNA library constructed from the A5T4 reporter cell line as prey. Binding was assessed by β-galactosidase quantification using BetaFluor (Novagen) as a substrate. A negative interaction control (no cDNA fused downstream of the GAL4 activation domain sequence) was also run. A general outline of the YTH assay is illustrated in FIG. 5A. Following clustering, filtering to remove non-specific bait hits (e.g., GFP and BFP), singletons and clusters recognized by 10 or more cDNA baits (based upon historical YTH assays), and prioritization, four prey clones were identified as hits, designated CL06-nonstim-7, CL06-stim-14, CL06-stim-15 and CL06-stim-2.
The interaction of CL06wt peptide and its mutants with the clones identified as potential targets for the peptide CL06wt was then quantified in a β-galactosidase YTH assay. The YTH assay was performed in the manner described above. A general outline of this YTH assay is illustrated in FIG. 5B. […]
The interaction of these IOF and LOF mutants with different polypeptides encoded by the clones CL06-nonstim-7, CL06-stim-14, CL06-stim-15 and CL06-stim-2 were quantified using the YTH assay described above. […]

Assay [2] concerns ST486 endogenous α promoter. In words: TAQMAN assay of endogenous germline α promoter transcription in TGF-β stimulated ST486 cells. To be noted: TGF-β 40 ng/ml, average of 3 values, p=0.6867. The format is cell-based. On the procedure: The ability of peptide CL06wt to inhibit transcription of an endogenous germline ε promoter was confirmed using a TAQMAN® assay (Roche Molecular, Alameda, Calif.). Briefly, A5T4 cells were infected with retrovirus capable of expressing peptide CL06wt (prepared as described above). The cells were sorted for BFP^+ to select for infected cells. Infected cells were divided into two populations. One population was exposed to Dox (10 ng/ml). Both populations were stimulated with IL-4 (60 U/ml). After 3 days, the cells were pelleted and the pellets assayed for ε promoter transcription using a TAQMAN assay performed as described in Applied Biosystems Protocol 4310299 (available at http:www.appliedbiosystems.com). The primers and probe, which are specific for the transcription product driven by the A5T4 endogenous ε promoter, were as follows (the probe was labeled at the 5′-end with Fam and at the 3′-end with Tamra):
The assay was similar to that described in the immediately preceding section, except that ST486 cells (ATCC # CRL-1647) engineered to express the tetracycline-regulated transactivator were infected and the infected cells were stimulated with TGF-β (40 ng/ml; Peprotech). The primers and probe, which are specific for the transcription product driven by the ST486 endogenous α promoter, were as follows (the probe was labeled at the 5′-end with Fam and at the 3′-end with Tamra): […]
For orientation: Quantitative PCR measures a nucleic acid by following its amplification.

The test system of assay [3] is IL-4 inducible germline ε promoter (A5T4 reporter cell line). In words: A5T4 reporter line screening assay: IL-4 induced germline ε promoter driving HBEGF2a/GFP reporter, peptide expressed retrovirally as BFP fusion, FACS. The format is cell-based, human. To be noted: mutants categorised relative to CL06wt. An excerpt: Peptide CL06wt was identified by screening a retroviral library of random peptide 20-mers for the ability to inhibit IL-4 induced germline ε transcription using the HBEGF2a/diphtheria dual reporter phenotypic screening system described in WO 01/31232. To construct the random library, A5T4 reporter cells (described in more detail below) were infected with an infectious retroviral library of random peptide 20-mers (prepared as described in WO 97/27213; see also WO 01/34806 at page 39, line 36 through page 40, line 19). The retroviral vector used includes a gene encoding blue fluorescent protein (BFP) fused upstream of the region encoding the random peptide via a linker region encoding an α-helical peptide linker (expression fusion product is referred to as “BFP-peptide”). Expression of the BFP-peptide product is controlled by a promoter sensitive to the tetracyline-regulated transactivator such that expression of the BFP-peptide regulated by tetracycline (Tet) or doxycycline (Dox). […]
Following infection, the library was enriched for cells expressing peptides that inhibit IL-4 induced ε transcription as generally outlined in the top half of FIG. 3 and sorted by FACS into single cell clones. […] After 5 days, both populations were stimulated with IL-4 (final conc. 60 U/mL; PeptroTech, Inc.) and, after 3 more days, both populations were analyzed by FACS to measure BFP and GFP fluorescence. […]

The target in assay [4] is T2, human retinoid X receptor beta (polypeptide encoded by prey clone CL06-stim-2) (human, UniProt P28702 1-533, limits assumed).
T2 sequence (looked up): T1 sequence (P28702 1-533)
In words: cell-based or functional assay.

Assay [5] addresses T2, human retinoid X receptor beta …. In words: beta-galactosidase yeast two-hybrid; CL06LC is a loss of function (L) mutant, hence category L (loss of interaction) with CL06-stim-2.
The target is the same in assay [6]. As to the kind of experiment: beta-galactosidase yeast two-hybrid; CL06SY1 is a loss of function (L) mutant, hence category L (loss of interaction) with CL06-stim-2.
The target is the same in assay [7]. In words: cell-based or functional assay. The source holds these as a separate data set.

For `CC1=C(/C=C/C(C)=C/C=C/C(C)=C\C(=O)O)C(C)(C)CCC1` [Peptide 13-cRA, 13-cis-RA], the “inhibition of germline ε transcription” value was “inhibit both IgE production and germline ε transcription in a dose-dependent manner” with germline ε transcription; “inhibited germline ε transcription in a dose-dependent manner” in assay [1]. Further, the “inhibition of IgE production” value with IgE production is “inhibit both IgE production and germline ε transcription in a dose-dependent manner”.

“MSLCSYAHSYAA [CL06wt, 12-residue peptide identified from a retroviral random peptide library, expressed as BFP-peptide fusion]”: the “binding to hRXR-β in yeast two hybrid interaction assay” value in the assay with human RXR-β (hRXR-β) was “found to bind”. In addition, in assay [2], the “endogenous a inhibition ratio” value worked out at 0.93.

With `CC1=C(/C=C/C(C)=C/C=C/C(C)=C/C(=O)O)C(C)(C)CCC1` [a-tRA, all-trans RA], the “inhibition of germline ε transcription” value was “inhibit both IgE production and germline ε transcription in a dose-dependent manner” with germline ε transcription; “inhibited germline ε transcription in a dose-dependent manner” in [1]. Also, the “inhibition of IgE production” value with IgE production is “inhibit both IgE production and germline ε transcription in a dose-dependent manner”.

Consider `CC1=C(/C=C/C(C)=C\C=C\C(C)=C\C(=O)O)C(C)(C)CCC1` [Peptide 9-cRA, 9-cis RA], for which the “inhibition of germline ε transcription” value in assay [1] is recorded as “inhibited germline ε transcription in a dose-dependent manner”.

“AALCSYAHSYAA [CL06MS, dual alanine mutant of CL06wt]”: the “functional category based on reporter ratio” value in assay [3] is given as “IOF (An increase of function mutant (IOF) shows a >50% increase in reporter function)”. Further, in the assay with human RXR-β (hRXR-β), the “binding to hRXR-β in yeast two hybrid interaction assay” value was “found to bind”.

B1: peptide CL06LC (MSAASYAHSYAA) (peptide)
peptide: MSAASYAHSYAA
notes: Dual alanine mutant of CL06wt (L, C to A, A); Yeast two-hybrid bait fusion and BFP fusion as for CL06wt
In the case of B1, the “Reporter Ratio (A5T4 reporter line, IL-4 induced germline ε transcription)” value in [4] stood at 1.06. Further, the binding result in assay [5] is reported as “no binding”.

B2: peptide CL06SY1 (MSLCAAAHSYAA) (peptide)
peptide: MSLCAAAHSYAA
notes: Dual alanine mutant of CL06wt (first S, Y to A, A); Yeast two-hybrid bait fusion and BFP fusion as for CL06wt
As for B2, the binding result in assay [6] was “no binding”. Also, the “Reporter Ratio (A5T4 reporter line, IL-4 induced germline ε transcription)” value in assay [4] is 1.09.

B3: peptide CL06wt (MSLCSYAHSYAA) (peptide)
peptide: MSLCSYAHSYAA
Take B3: the “endogenous ε inhibition ratio (TAQMAN assay, +IL-4/-Dox to +IL-4/+Dox)” value in assay [7] turned out to be 1.37. In assay [4], the “Reporter Ratio (A5T4 reporter line, IL-4 induced germline ε transcription)” value was determined as 1.3.

B4: peptide CL06MS (AALCSYAHSYAA) (peptide)
peptide: AALCSYAHSYAA
Turning to B4, the “Reporter Ratio (A5T4 reporter line, IL-4 induced germline ε transcription)” value in assay [4] is 1.56.
